Consider 2 compounds from ChEMBL document CHEMBL4387706, “Discovery of Novel Spiroindoline Derivatives as Selective Tankyrase Inhibitors” (J Med Chem, 2019).

In brackets after ≈: the same amount, converted by molar mass. Bounds are passed on as bounds.

Data set [1] can be described thus: Cmax in Sprague-Dawley rat at 3 mg/kg, po. The class given is ADME, organism-based. More on the design: dose 3 mg/kg, route oral. The following applies: in vivo.
Data set [2] addresses Poly [ADP-ribose] polymerase 1 (Homo sapiens, UniProt P09874).
Description: Inhibition of recombinant human PARP1 expressed in Escherichia coli assessed as reduction in auto-PARylation using histone as substrate measured after 45 mins in presence of biotinylated-NAD+ by ELISA
A short description of data set [3]: AUC (infinity) in Sprague-Dawley rat at 1 mg/kg, iv. The class given is ADME, organism-based. More on the design: dose 1 mg/kg, route intravenous, time infinity. The conditions noted are these: in vivo.
In data set [4] the target is Poly [ADP-ribose] polymerase 2 (Homo sapiens, UniProt Q9UGN5). The data set can be described thus: Inhibition of human recombinant N-terminal GST-tagged PARP2 (2 to 583 residues) expressed in baculovirus infected Sf9 cells assessed as reduction in auto-PARylation using histone as substrate measured after 45 mins in presence of biotinylated-NAD+ by ELISA. On the technique in general: ELISA stands for enzyme-linked immunosorbent assay.

Data set [5] in a line: AUC (infinity) in Sprague-Dawley rat at 3 mg/kg, po. The following applies: in vivo. The class given is ADME, organism-based. Also noted: dose 3 mg/kg, time infinity, route oral.
The nature of data set [6]: Volume of distribution at steady state in Sprague-Dawley rat at 1 mg/kg, iv. The following applies: in vivo, read-out: Vdss. The data set is classed as ADME, organism-based.
Data set [7] can be described thus: Oral bioavailability in Sprague-Dawley rat at 3 mg/kg. The data set is classed as ADME, organism-based. The following applies: in vivo.
Data set [8] is described as follows: in vitro. The following applies: human, liver microsomes. Background: Liver microsomes are vesicles of endoplasmic reticulum, rich in cytochrome P450 enzymes.
Description: Stability in human liver microsomes assessed as parent compound remaining at 1 uM measured after 30 mins in presence of NADPH by LC-MS/MS analysis
A short description of data set [9]: Initial plasma concentration in Sprague-Dawley rat at 1 mg/kg, iv. The data set is classed as ADME, organism-based.
Data set [10] in a line: Total clearance in Sprague-Dawley rat at 1 mg/kg, iv. The data set is classed as ADME, organism-based. The conditions noted are these: in vivo.
The target of data set [11] is D(2) dopamine receptor (Homo sapiens) (UniProt P14416). The data set can be described thus: Displacement of [3H]spiperone from full-length recombinant human D2S receptor expressed in CHO cells at 10 uM measured after 120 mins by scintillation counting method relative to control. The data set is classed as cell-based. For orientation: Displacement assays read how much labelled ligand stays bound in the presence of the test substance.

For data set [12], the target named is 5-hydroxytryptamine receptor 1A (Homo sapiens) (UniProt P08908). Kind of data set: Displacement of [3H]8-OH-DPAT from full-length recombinant human 5HT1A receptor expressed in CHOK1 cells at 10 uM measured after 60 mins by scintillation counting method relative to control. The data set is classed as cell-based.
Data set [13] concerns the target Endothelin-1 receptor (Homo sapiens) (UniProt P25101). The data set can be described thus: Displacement of [125I]Endothelin1 from full-length recombinant human ETA receptor expressed in CHOK1 cells at 10 uM measured after 120 mins by scintillation counting method relative to control. The class given is cell-based.
Data set [14] is described as follows: Protein binding in mouse serum assessed as unbound fraction at 1 uM measured after 24 hrs by LC-MS/MS analysis. The class given is ADME, cell-free.
For a further data set, the system named is COLO 320DM. The data set can be described thus: cells. The following applies: Homo sapiens, 96 h.
For data set [15], the target named is T1, Protein mono-ADP-ribosyltransferase PARP10 (Homo sapiens, UniProt Q53GL7).
T1 sequence (Q53GL7 whole entry): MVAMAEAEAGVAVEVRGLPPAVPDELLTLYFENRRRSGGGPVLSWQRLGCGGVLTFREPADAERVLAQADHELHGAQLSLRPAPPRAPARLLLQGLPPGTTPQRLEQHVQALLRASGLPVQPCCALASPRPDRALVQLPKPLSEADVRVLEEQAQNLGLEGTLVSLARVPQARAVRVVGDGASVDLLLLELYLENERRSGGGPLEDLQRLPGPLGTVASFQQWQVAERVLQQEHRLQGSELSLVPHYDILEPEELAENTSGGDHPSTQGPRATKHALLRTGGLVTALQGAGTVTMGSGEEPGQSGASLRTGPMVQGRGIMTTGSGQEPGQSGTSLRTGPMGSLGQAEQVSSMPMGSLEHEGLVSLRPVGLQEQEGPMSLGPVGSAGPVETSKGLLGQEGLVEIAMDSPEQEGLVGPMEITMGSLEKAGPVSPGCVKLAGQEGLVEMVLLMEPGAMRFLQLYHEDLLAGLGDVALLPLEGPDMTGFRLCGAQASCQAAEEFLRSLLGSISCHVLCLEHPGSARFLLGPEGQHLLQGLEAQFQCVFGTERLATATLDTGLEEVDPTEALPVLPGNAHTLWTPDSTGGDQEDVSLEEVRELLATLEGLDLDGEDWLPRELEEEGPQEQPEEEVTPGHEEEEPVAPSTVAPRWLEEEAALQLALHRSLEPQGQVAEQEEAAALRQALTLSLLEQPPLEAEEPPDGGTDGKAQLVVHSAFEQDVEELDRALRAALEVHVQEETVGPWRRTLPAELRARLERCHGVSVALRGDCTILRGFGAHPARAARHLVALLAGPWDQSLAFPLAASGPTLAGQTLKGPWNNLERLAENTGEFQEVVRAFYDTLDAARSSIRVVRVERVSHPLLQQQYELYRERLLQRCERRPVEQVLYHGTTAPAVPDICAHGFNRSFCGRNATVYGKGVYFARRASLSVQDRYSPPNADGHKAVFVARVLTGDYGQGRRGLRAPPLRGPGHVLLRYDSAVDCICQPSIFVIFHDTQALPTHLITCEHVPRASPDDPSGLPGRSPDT
The data set can be described thus: Inhibition of human recombinant N-terminal TEV-cleavgae site-fused-FLAG/Polyhis-tagged PARP10 […] expressed in Escherichia coli assessed as reduction in auto-PARylation using histone as substrate measured after 45 mins in presence of biotinylated-NAD+ by ELISA.

The nature of data set [16]: Protein binding in human serum assessed as unbound fraction at 1 uM measured after 24 hrs by LC-MS/MS analysis. The data set is classed as ADME, cell-free.
Data set [17] can be described thus: Tmax in Sprague-Dawley rat at 3 mg/kg, po. The class given is ADME, organism-based. The following applies: in vivo.
Data set [18] is described as follows: Half life in Sprague-Dawley rat at 1 mg/kg, iv. The data set is classed as ADME, organism-based. The following applies: in vivo.
For data set [19], the target named is Cannabinoid receptor 1 (Homo sapiens) (UniProt P21554). The data set can be described thus: Displacement of [3H]SR141716A from full-length recombinant human CB1 receptor expressed in human Chem1 cells at 10 uM measured after 60 mins by scintillation counting method relative to control. The data set is classed as cell-based.
A short description of data set [20]: in vitro. The following applies: mouse, liver microsomes.
Description: Stability in mouse liver microsomes assessed as parent compound remaining at 1 uM measured after 30 mins in presence of NADPH by LC-MS/MS analysis
For a further data set, the species on record is Rattus norvegicus. Kind of data set: Displacement of [3H]batrachotoxinin from Wistar rat brain sodium channel site 2 at 10 uM after 60 mins by scintillation counting analysis relative to control.
The next data set in a line: physchem. The following applies: phosphate buffer, pH 7.4.
Data set [21] can be described thus: Permeability of the compound by PAMPA. The data set is classed as ADME. The conditions noted are these: read-out: permeability.

By Cmax is commonly meant the peak of the concentration-time curve. For orientation: IC50 means the concentration at which inhibition is half-maximal. As a reminder, the AUC(0-inf) is the area under the concentration-time curve extrapolated to infinity. Lower therefore signals less exposure. For orientation: bioavailability means the share of a dose that reaches the circulation, judged against a reference dose that is usually intravenous. A higher bioavailability goes with good availability. In general, share remaining refers to what is left of the initial amount, in per cent. Higher therefore signals less turnover. The clearance is the rate of elimination divided by the concentration. A lower clearance goes with a low capacity for elimination. What is called inhibition is the change of the read-out against control, counted positive when it falls. In general, fraction unbound refers to the share of the substance not bound to proteins or other matrix. A word on the GI50: it is the concentration giving 50% growth inhibition. A lower GI50 goes with greater sensitivity of the cells. The term Tmax denotes the time at which the peak concentration occurs. In general, half-life refers to the time in which the quantity being followed falls by half. A low value points to fast loss. The solubility is the dissolved amount per volume that the medium holds.

Poly [ADP-ribose] polymerase 1, sequence (P09874 whole entry): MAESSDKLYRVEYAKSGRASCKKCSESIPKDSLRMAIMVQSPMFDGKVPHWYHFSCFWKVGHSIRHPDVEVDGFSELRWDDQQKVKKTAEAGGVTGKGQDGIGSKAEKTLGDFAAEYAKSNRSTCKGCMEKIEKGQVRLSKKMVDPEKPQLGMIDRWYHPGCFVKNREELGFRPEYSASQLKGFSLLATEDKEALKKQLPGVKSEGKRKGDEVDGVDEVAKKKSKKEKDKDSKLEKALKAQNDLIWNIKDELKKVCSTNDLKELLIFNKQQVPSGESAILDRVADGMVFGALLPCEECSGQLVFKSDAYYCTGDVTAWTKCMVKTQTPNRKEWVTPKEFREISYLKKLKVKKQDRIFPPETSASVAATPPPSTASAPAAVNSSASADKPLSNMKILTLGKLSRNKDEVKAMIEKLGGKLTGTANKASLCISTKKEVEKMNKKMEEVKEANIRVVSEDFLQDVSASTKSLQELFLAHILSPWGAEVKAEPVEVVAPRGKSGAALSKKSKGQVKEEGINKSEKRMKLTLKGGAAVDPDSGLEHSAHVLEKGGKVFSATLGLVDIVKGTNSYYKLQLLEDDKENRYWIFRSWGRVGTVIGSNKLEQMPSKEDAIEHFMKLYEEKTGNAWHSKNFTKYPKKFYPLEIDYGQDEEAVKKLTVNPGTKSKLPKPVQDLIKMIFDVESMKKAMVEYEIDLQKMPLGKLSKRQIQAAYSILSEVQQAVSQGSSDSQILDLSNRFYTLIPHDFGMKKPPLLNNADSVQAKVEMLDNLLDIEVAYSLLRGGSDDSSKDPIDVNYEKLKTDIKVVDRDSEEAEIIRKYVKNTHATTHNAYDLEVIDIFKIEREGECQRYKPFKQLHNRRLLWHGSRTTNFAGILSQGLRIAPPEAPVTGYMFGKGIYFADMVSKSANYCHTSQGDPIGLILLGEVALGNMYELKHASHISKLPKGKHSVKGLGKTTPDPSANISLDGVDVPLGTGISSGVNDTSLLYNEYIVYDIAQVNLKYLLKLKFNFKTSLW
Poly [ADP-ribose] polymerase 2, sequence (Q9UGN5 whole entry, the tested form may be a part): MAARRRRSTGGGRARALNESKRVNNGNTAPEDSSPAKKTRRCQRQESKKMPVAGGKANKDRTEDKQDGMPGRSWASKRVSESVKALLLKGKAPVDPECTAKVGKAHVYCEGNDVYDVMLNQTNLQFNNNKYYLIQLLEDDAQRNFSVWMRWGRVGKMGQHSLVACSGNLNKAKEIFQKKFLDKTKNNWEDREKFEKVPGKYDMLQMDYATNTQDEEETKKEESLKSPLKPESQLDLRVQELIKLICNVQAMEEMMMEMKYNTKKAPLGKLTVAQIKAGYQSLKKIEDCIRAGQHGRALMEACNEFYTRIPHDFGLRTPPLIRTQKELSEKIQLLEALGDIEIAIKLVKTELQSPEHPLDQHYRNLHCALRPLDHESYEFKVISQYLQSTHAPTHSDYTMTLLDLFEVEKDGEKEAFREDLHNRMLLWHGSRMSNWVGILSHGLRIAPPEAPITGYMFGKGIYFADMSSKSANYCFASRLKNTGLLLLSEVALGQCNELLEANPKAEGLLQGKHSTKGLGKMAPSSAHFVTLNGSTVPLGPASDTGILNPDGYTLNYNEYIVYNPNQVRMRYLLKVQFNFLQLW
Cannabinoid receptor 1 (Homo sapiens), sequence (P21554 whole entry): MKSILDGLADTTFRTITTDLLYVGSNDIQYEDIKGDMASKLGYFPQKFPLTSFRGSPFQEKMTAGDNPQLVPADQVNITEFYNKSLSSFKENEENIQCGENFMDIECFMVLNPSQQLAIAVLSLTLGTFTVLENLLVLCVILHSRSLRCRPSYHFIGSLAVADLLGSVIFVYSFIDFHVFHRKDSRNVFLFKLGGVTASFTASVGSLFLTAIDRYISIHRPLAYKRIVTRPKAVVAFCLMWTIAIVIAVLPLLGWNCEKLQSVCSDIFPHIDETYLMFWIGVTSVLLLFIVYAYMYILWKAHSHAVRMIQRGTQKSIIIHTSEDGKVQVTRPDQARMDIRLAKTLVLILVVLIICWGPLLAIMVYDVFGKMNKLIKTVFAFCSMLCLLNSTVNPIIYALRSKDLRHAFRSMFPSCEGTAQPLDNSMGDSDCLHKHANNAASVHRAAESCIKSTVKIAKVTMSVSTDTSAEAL
D(2) dopamine receptor (Homo sapiens), sequence (P14416 whole entry): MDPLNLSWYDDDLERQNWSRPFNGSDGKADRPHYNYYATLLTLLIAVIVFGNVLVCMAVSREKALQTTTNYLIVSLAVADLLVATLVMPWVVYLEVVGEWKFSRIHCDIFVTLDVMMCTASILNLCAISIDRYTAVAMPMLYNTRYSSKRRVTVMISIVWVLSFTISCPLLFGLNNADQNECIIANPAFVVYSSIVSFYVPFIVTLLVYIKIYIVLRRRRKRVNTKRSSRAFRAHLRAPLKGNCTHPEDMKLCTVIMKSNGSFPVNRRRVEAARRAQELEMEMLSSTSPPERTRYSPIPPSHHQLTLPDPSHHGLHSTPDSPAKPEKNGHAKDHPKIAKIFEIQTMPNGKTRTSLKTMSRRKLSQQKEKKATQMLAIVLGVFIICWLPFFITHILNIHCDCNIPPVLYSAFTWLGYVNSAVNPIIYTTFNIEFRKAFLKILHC
5-hydroxytryptamine receptor 1A (Homo sapiens), sequence (P08908 whole entry): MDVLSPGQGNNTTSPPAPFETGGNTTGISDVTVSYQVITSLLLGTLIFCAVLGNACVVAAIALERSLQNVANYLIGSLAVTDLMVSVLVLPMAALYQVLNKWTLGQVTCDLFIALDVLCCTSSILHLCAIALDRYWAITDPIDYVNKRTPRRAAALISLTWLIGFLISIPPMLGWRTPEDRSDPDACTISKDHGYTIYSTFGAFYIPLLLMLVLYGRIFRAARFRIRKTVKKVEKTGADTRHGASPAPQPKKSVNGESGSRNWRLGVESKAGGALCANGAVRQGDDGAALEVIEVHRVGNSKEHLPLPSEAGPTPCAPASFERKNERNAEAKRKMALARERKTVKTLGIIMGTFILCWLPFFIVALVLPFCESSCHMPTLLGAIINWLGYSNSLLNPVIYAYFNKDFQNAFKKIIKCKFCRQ
Endothelin-1 receptor (Homo sapiens), sequence (P25101 whole entry): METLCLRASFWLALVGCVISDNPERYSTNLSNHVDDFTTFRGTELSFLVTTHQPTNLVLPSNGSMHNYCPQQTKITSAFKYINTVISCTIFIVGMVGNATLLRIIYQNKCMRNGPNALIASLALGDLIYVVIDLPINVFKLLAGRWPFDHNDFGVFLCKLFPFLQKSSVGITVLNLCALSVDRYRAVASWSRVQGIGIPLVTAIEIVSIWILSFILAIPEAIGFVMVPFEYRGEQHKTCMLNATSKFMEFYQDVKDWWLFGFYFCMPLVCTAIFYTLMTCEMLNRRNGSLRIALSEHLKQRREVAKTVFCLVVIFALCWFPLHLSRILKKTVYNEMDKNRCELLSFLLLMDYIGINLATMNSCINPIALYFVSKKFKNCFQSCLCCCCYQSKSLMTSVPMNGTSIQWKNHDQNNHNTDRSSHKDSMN
Description for COLO 320DM: Antiproliferative activity against human COLO320DM cells assessed as inhibition of cell growth measured after 4 days by CellTiter-Glo assay

Compound `O=c1[nH]c(N2CCC3(CC2)CN(CCO)c2cc(F)cc(F)c23)nc2c1CCCC2` showed a Cmax in data set [1] of 2280 nM. Besides, the IC50 in data set [2] is 20 to 100 µM; in [4], 2.72 µM; in data set [15] it was 19.8 µM. Moreover, the AUC(0-inf) in data set [3] came out at 4.42 µM·h; in data set [5] it was 7.92 µM·h. In [6], the Vd is 0.59 L/kg. Besides, the bioavailability in data set [7] was 59.8%. Also, the fraction remaining at 0.5 h, 1 µM in “in vitro [8]” was 5.9%; in the data set “in vitro [20]” it was 18.3%. Further, the C0 in [9] was found to be 9840 nM. Further, the clearance in data set [10] is 9 mL/min/kg. Also, the inhibition (in data set [11]; in data set [12]; in data set [13]; in data set [19]; in the data set filed under Rattus norvegicus) was > 20% in each case. Besides, the fraction unbound at 24 h, 1 µM stood at 0.015 in [14] and 0.004 in data set [16]. Further, the GI50 in the data set with COLO 320DM stood at 1.6 µM. The Tmax in [17] is 0.25 h. In [18], this compound gave a half-life of 3.5 h.
For `COc1ccccc1N1CCN(c2nc3c(c(=O)[nH]2)CCCC3)CC1`, the highest level in data set [1] (Cmax) was 120 nM. Besides, the half-maximal inhibitory concentration (IC50) is 20 to 100 µM in [2], 2.23 µM in [4] and 10.2 µM in data set [15]. The total exposure AUC(0-inf) in [3] was 0.72 µM·h; in data set [5] it was 1.27 µM·h. Moreover, in data set [6], the Vd is 58.9 L/kg. The bioavailability in data set [7] stood at 59.7%. Moreover, the amount remaining at 0.5 h, 1 µM is 84.1% in “in vitro [8]” and 0% in the data set “in vitro [20]”. In data set [9], this compound yielded a C0 of 1000 nM. For the same compound, in the data set “physchem”, the solubility at 1 h, 200 µM was 10 µg/mL (≈ 29.4 µM). In data set [10], the clearance was 68 mL/min/kg. Also, the results for the fraction unbound at 24 h, 1 µM in data set [14] and in [16] were 0.029 and 0.043, respectively. For the same compound, in the data set with COLO 320DM, the GI50 is 3.2 µM. Also, the Tmax in data set [17] was found to be 0.5 h. In addition, the half-life in data set [18] is 13 h. In [21], the Papp was found to be 0.34 ×10⁻⁶ cm/s.
